target: T1, HIV-1 RT (Human immunodeficiency virus type 1 group M subtype B, UniProt P03367); experiment: Reverse Transcriptase (RT) Assay: inhibition of RNA-dependent DNA polymerase activity; format: biochemical; conditions: 10µg/ml; Table I, compounds of formula I; read-out: RT Inhibition % @ 10µg/ml
T1 construct: Reverse transcriptase enzyme from the LAV strain of Human Immunodeficiency Virus (HIV-1) (1) was isolated from the bacterial strain JM109; made in house; host or cells: E. coli JM109, clone pBRTprt1+ in vector pIBI21, lac promoter, IPTG induction
Description: Utilizing the Reverse Transcriptase (RT) Assay descibed below, compounds can be tested for their ability to inhibit the RNA-dependent DNA polymerase activity of HIV-1 RT. Certain specific compounds of formula I described in the Examples which appear below, were so tested. The above-described compounds of formula IA were also so tested.
Among the enzymes for which Human Immunodeficiency Virus (HIV-1) encodes is a reverse transcriptase (1), so-named because it transcribes a DNA copy from an RNA template. This activity can be quantitatively measured in a cell-free enzyme assay which has been previously described (2), and is based upon the observation that reverse transcriptase is able to use a synthetic template [poly r(C) primed with oligo d(G)] to transcribe a radio-labelled, acid-precipitable DNA strand utilizing ^3H-dGTP as a substrate.
Reverse transcriptase enzyme from the LAV strain of Human Immunodeficiency Virus (HIV-1) (1) was isolated from the bacterial strain JM109 (3) expressing the DNA clone pBRTprt1+ (2) which is under the control of the lac promoter in the expression vector pIBI21 (4). An overnight culture grown in 2XYT medium (37°C, 225 rpm) (5) supplemented with 100 µg/ml ampicillin for positive selection is inoculated at a 1:40 dilution into M9 medium supplemented with 10µg/ml thiamine, 0.5% casamino acids, and 50 µg/ml ampicillin (5). The culture is incubated (37°C, 225 rpm) until it reaches an OD540 of 0.3-0.4. At that time the repressor inhibitor IPTG (isopropyl b-D-thiogalactopyranoside) is added to 0.5mM and the mixture is incubated for 2 additional hours. Bacteria are pelleted, resuspended in a 50mM Tris, 0.6mM EDTA, 0.375M NaCl buffer and digested by the addition of lysozyme (1mg/ml) for 30 minutes on ice. The cells are lysed by the addition of 0.2% NP-40 and brought to 1M NaCl.
After removal of the insoluble debris by centrifugation, the protein is precipitated by the addition of 3 volumes of water-saturated ammonium sulfate. The enzyme is pelleted, resuspended in RT buffer (50mM Tris pH 7.5. 1mM EDTA, 5mM DTT, 0.1% NP-40, 0.1M NaCl, and 50% glycerol), and stored at -70°C for further use.
The 2X concentrated stock reaction mixture is aliquoted and stored at -20°C. The mixture is stable and thawed for use in each assay. This enzyme assay has been adapted to a 96 well microtiter plate system, and has been previously described (6). Tris buffer (50 mM, pH 7.4), vehicle (solvent diluted to match the compound dilution), or compounds in vehicle are dispensed into 96-well microtiter plates (10µl/well: 3 wells/compound). The HIV-1 RT enzyme is thawed and diluted in 50mM Tris pH 7.4 so that fifteen µl of diluted enzyme contain 0.001 Unit (one unit is that amount of enzyme to transform 1 micromole of substrate per minute at 25°C) and 15µl are dispensed per well. Twenty µl of 0.12 - 0.5M EDTA are added to the first three wells of the microtiter plate. EDTA chelates the Mg^++ present and prevents reverse transcription. This group serves as background polymerization which is subtracted from all other groups. Twenty-five ul of the 2X reaction mixture are added to all wells and the assay is allowed to incubate at room temperature for 60 minutes. The assay is terminated by precipitating the DNA in each well with 50µl of trichloracetic acid (TCA) (10% w/v) in sodium pyrophosphate (1% w/v). The microtiter plate is incubated for 15 minutes at 4°C and the precipitate is fixed onto #30 glass fiber paper (Schleicher & Schuell) using a Skatron semi-automatic harvester. The filters are then washed with additional TCA (5%) containing sodium pyrophosphate (1%), rinsed with aqueous ethanol (70%), dried, and transferred to scintillation vials (6). Each vial receives 2 mls of scintillation cocktail and is counted in a Beckman beta counter. […]

Row | SMILES | inhibition at 10 µg/mL [%]
1 | CCN1C(=O)c2cccnc2N(CC)c2ccccc21 [Example 21, 6,11-Diethyl-6,11-dihydro-5H-pyrido[2,3-b][1,5]benzodiazepin-5-one] | 96
2 | CCN1c2cc(C)c(C)cc2N(C)C(=O)c2cccnc21 [Example 29, 6,11-Dihydro-11-ethyl-6,8,9-trimethyl-5H-pyrido[2,3-b][1,5]benzodiazepin-5-one] | 99
3 | CCCCN1c2ccccc2N(C)C(=O)c2cccnc21 [Example 6, 11-Butyl-6,11-dihydro-6-methyl-5H-pyrido[2,3-b][1,5]-benzodiazepin-5-one] | 46
4 | Cc1cccc2c1NC(=O)c1cccnc1N2 [Example 32, 6,11-Dihydro-7-methyl-5H-pyrido[2,3-b][1,5]benzodiazepin-5-one] | 51
5 | CCN1c2ccccc2NC(=O)c2cccnc21 [Example 23, 6,11-Dihydro-11-ethyl-5H-pyrido[2,3-b][1,5]benzodiazepin-5-one] | 100
6 | CCN1c2ccccc2N(CF)C(=O)c2cccnc21 [Example 34, 6,11-Dihydro-11-ethyl-6-fluoromethyl-5H-pyrido-[2,3-b][1,5]benzodiazepin-5-one] | 85
7 | CCCN1c2ccccc2N(C)C(=O)c2cccnc21 [Example 3, 6,11-Dihydro-6-methyl-11-propyl-5H-pyrido[2,3-b][1,5]benzodiazepin-5-one] | 92
8 | CCCN1C(=O)c2cccnc2N(C)c2ccccc21 [Example 12, 6,11-Dihydro-11-methyl-6-propyl-5H-pyrido[2,3-b][1,5]benzodiazepin-5-one] | 89
9 | CN1C(=O)c2cccnc2N(C)c2ccccc21 [Example 10, 6,11-Dihydro-6,11-dimethyl-5H-pyrido[2,3-b][1,5]benzodiazepin-5-one] | 68
10 | CCN1C(=O)c2cccnc2N(C)c2ccccc21 [Example 11, 6,11-Dihydro-6-ethyl-11-methyl-5H-pyrido[2,3-b][1,5]benzodiazepin-5-one] | 88
11 | CN1C(=O)c2cccnc2N(CCO)c2ccccc21 [Example 7, 6,11-Dihydro-11-(2-hydroxyethyl)-6-methyl-5H-pyrido[2,3-b][1,5]benzodiazepin-5-one] | 50
12 | CC(C)N1C(=O)c2cccnc2N(C)c2ccccc21 [Example 13, 6,11-Dihydro-11-methyl-6-methylethyl-5H-pyrido[2,3-b][1,5]benzodiazepin-5-one] | 91
13 | CCN1c2ccc(C(=O)OC)cc2N(C)C(=O)c2cccnc21 [Example 30, 6,11-Dihydro-8-methoxycarbonyl-11-ethyl-6-methyl-5H-pyrido[2,3-b][1,5] benzodiazepin-5-one] | 94
14 | Cc1cc(C)c2c(n1)N(C)c1cc(C)c(C)cc1N(C)C2=O [Example 16, 6,11-Dihydro-2,4,6,8,9,11-hexamethyl-5H-pyrido[2,3-b][1,5]benzodiazepin-5-one] | 44
15 | CCOC(=O)CN1c2ccccc2N(C)C(=O)c2cccnc21 [Example 27, 6,11-Dihydro-11-(ethoxycarbonyl)methyl-6-methyl-5H-pyrido[2,3-b][1,5] benzodiazepin-5-one] | 64
16 | CC(=O)N1c2ccccc2N(C)C(=O)c2cccnc21 [Example 18, 11-Acetyl-6,11-dihydro-6-methyl-5H-pyrido[2,3-b][1,5]benzodiazepin-5-one] | 29
17 | Cc1cc2c(cc1C)N(C)C(=O)c1cccnc1N2 [Example 28, 6,11-Dihydro-6,8,9-trimethyl-5H-pyrido[2,3-b][1,5]benzodiazepin-5-one] | 65
18 | CSCN1C(=O)c2cccnc2N(CSC)c2cc(Cl)ccc21 [Example 20, 6,11-bis-(methylthiomethyl)-9-chloro-6,11-dihydro-5H-pyrido-[2,3-b][1,5]benzodiazepin-5-one] | 69
19 | CN1c2ccccc2NC(=O)c2cccnc21 [Example 1, 6,11-Dihydro-11-methyl-5H-pyrido[2,3-b][1,5]benzodiazepin-5-one] | 37
20 | CN1C(=O)c2cccnc2N(Cc2ccccc2)c2ccccc21 [Example 25, 6,11-Dihydro-11-benzyl-6-methyl-5H-pyrido[2,3-b][1,5]benzodiazepin-5-one] | 73
21 | CCCCN1C(=O)c2cccnc2N(C)c2ccccc21 [Example 14, 6-Butyl-6,11-dihydro-11-methyl-5H-pyrido[2,3-b][1,5] benzodiazepin-5-one] | 75
22 | CCN1C(=O)c2cccnc2Nc2cccc(C)c21 [Example 31, 6,11-Dihydro-6-ethyl-7-methyl-5H-pyrido[2,3-b][1,5]benzodiazepin-5-one] | 92
23 | CN1C(=O)c2cccnc2N(CC(=O)OC(C)(C)C)c2ccccc21 [Example 26, 6,11-Dihydro-11-(t-butoxycarbonyl)methyl-6-methyl-5H-pyrido[2,3-b][1,5] benzodiazepin-5-one] | 81

same assay, conditions: 10µg/ml; Table II, known compounds of formula IA

Row | SMILES | RT Inhibition % @ 10µg/ml [%]
24 | Cc1cc2c(cc1C)N(C)C(=O)c1cccnc1N2 [Formula IA e, 6,8,9-trimethyl-6,11-dihydro-5H-pyrido[2,3-b][1,5]benzodiazepin-5-one] | 65

same assay, conditions: 10µg/ml; Table II, known compounds of formula IA; read-out: RT Inhibition % @ 10µg/ml

Row | SMILES | inhibition at 10 µg/mL [%]
25 | CCN1C(=O)c2cccnc2Nc2cc(C)c(C)cc21 [Formula IA f, 6-ethyl-8,9-dimethyl-6,11-dihydro-5H-pyrido[2,3-b][1,5]benzodiazepin-5-one] | 95
26 | CC(C)CN1C(=O)c2cccnc2Nc2ccccc21 [Formula IA g, 6-isobutyl-6,11-dihydro-5H-pyrido[2,3-b][1,5]benzodiazepin-5-one] | 33
27 | CN1C(=O)c2cccnc2Nc2ccccc21 [Formula IA b, 6-methyl-6,11-dihydro-5H-pyrido[2,3-b][1,5]benzodiazepin-5-one] | 43
28 | Cc1ccc2c(c1)N(C)C(=O)c1c(C)cc(C)nc1N2 [Formula IA a, 2,4,6,8-tetramethyl-6,11-dihydro-5H-pyrido[2,3-b][1,5]benzodiazepin-5-one] | 58
29 | O=C1Nc2ccccc2Nc2ncccc21 [Formula IA c, 6,11-dihydro-5H-pyrido[2,3-b][1,5]benzodiazepin-5-one] | 22
30 | CCN1C(=O)c2cccnc2Nc2cc(C)ccc21 [Formula IA h, 6-ethyl-9-methyl-6,11-dihydro-5H-pyrido[2,3-b][1,5]benzodiazepin-5-one] | 78
31 | CCN1C(=O)c2cccnc2Nc2ccccc21 [Formula IA d, 6-ethy-6,11-dihydro-5H-pyrido[2,3-b][1,5]benzodiazepin-5-one] | 69

same assay, conditions: read-out: RT Inhibition % @ 10µg/ml

Row | SMILES | inhibition at 10 µg/mL [%]
32 | CCN1c2ccccc2NC(=S)c2cccnc21 [Example 24, 6,11-Dihydro-11-ethyl-5H-pyrido[2,3-b][1,5]benzodiazepin-5-thione] | 100
33 | CN1C(=O)c2cccnc2N(CCF)c2ccccc21 [Example 33, 6,11-Dihydro-11-(2-fluoroethyl)-6-methyl-5H-pyrido[2,3-6][1,5]benzodiazepin-5-one] | 97
